Results published in patent US12662482B2 (The Johns Hopkins University, priority 2020, dated 2026).
Where a name gives a salt, the structure may show the parent alone.

What follows are molecules tested on RPA194 (assay: RPA194 destruction / Pol I inhibition, high-content imaging in A375 cells). Details: A375 cells treated for 4 hours, anti-RPA194 immunofluorescence; pIC50 >= 5.02 deemed a Pol I inhibitor.
Assay type: cell-based
Method: Cell culture: A375 cells (CRL-1619, ATCC) were grown in DMEM (GJBCO) supplemented with […] (GTBCO) in 5% CO2 at 37° C.
Cell treatment and Imaging: 18 hours post-seeding in cell carrier black 384-well plates (PerkinElmer) at 15 000 cells/well, A375 cells were treated for 4 hours with a positive control or test compounds (9 serial semi-log dilutions, top concentration 10 μM). Upon treatment A375 cells were (i) fixed for 15 min at RT with 4% of paraformaldehyde, (ii) permeabilized for 20 min at RT with 0.1-0.5% of NP-40, (iii) incubated with primary antibodies at 4° C.: anti-RPA194 (1:1000-1:1250 dilution, sc-48385, Santa Cruz Biotechnology) and anti-gH2Ax (1:5000 dilution, 81299, Abcam or 1:4000, JBW302, Millipore) (iv) incubated for 1 h at RT with Hoechst (1:5000 dilution, H3570, ThermoFisher) and secondary antibodies: anti-mouse-AlexaFluor488 (1:2000 dilution, A11001, ThermoFisher) and anti-rabbit-AlexaFluor647 (1:2000 dilution, A21443, ThermoFisher) or goat anti-mouse AlexaFluor-594 (1:1000 dilution). Images were acquired on an Operetta CLS High-Content Analysis System (PerkinElmer) (40× objective; 9 fields/well) and processed using the Columbus Image Analysis System (PerkinElmer) or by using Molecular Devices ImageXpress Micro XLS High Content Imager and MetaXpress high-content acquisition and analysis software.
In the table below, (+) is associated with a pIC50 5.02 to 5.8; (++) with pIC50 5.8 to 6.3; and (+++) with a pIC50 above 6.3.
With `CNC(C)CNC(=O)c1cccn2c(=O)c3ccc4ccccc4c3nc12` (single isomer, unassigned) [Example 19, (S or R)-N-(2-(methylamino)propyl)-7-oxo-7H-benzo[h]pyrido[2,1-b]quinazoline-12-carboxamide; hydrochloride] the “Activity Range (pIC50)” value was “++ ((++) with pIC50 5.8 to 6.3)”.
`CNC(C)CNC(=O)c1cccn2c(=O)c3ccc4ccccc4c3nc12` (single isomer, unassigned) [Example 20, (R or S)-N-(2-(methylamino)propyl)-7-oxo-7H-benzo[h]pyrido[2,1-b]quinazoline-12-carboxamide; hydrochloride] was tested, and the “Activity Range (pIC50)” value was “++ ((++) with pIC50 5.8 to 6.3)”.
For `CN(C)CCNC(=O)c1cccn2c(=O)c3ccc4ccccc4c3nc12` [Example 1, hydrochloride], the “Activity Range (pIC50)” value was “+++ ((+++) with a pIC50 above 6.3)”.
In the case of `O=C(NCCN1CC[C@H](O)C1)c1cccn2c(=O)c3ccc4ccccc4c3nc12` [Example 2, (S)-N-(2-(3-hydroxypyrrolidin-1-yl)ethyl)-7-oxo-7H-benzo[h]pyrido[2,1-b]quinazoline-12-carboxamide; hydrochloride], the “Activity Range (pIC50)” value is reported as “+++ ((+++) with a pIC50 above 6.3)”.
With `O=C(NCCN1CC[C@@H](O)C1)c1cccn2c(=O)c3ccc4ccccc4c3nc12` [Example 3, (R)-N-(2-(3-hydroxypyrrolidin-1-yl)ethyl)-7-oxo-7H-benzo[h]pyrido[2,1-b]quinazoline-12-carboxamide; hydrochloride] the “Activity Range (pIC50)” value was “+++ ((+++) with a pIC50 above 6.3)”.
`O=C(NCCN1CCCC1)c1cccn2c(=O)c3ccc4ccccc4c3nc12` [Example 4, 7-oxo-N-(2-(pyrrolidin-1-yl)ethyl)-7H-benzo[h]pyrido[2,1-b]quinazoline-12-carboxamide hydrochloride] was tested, and the “Activity Range (pIC50)” value was “+++ ((+++) with a pIC50 above 6.3)”.
`O=C(NCCN1CCC(O)CC1)c1cccn2c(=O)c3ccc4ccccc4c3nc12` [Example 5, N-(2-(4-hydroxypiperidin-1-yl)ethyl)-7-oxo-7H-benzo[h]pyrido[2,1-b]quinazoline-12-carboxamide hydrochloride] was tested, and the “Activity Range (pIC50)” value was “+++ ((+++) with a pIC50 above 6.3)”.
For `CN(C)C(C)(C)CNC(=O)c1cccn2c(=O)c3ccc4ccccc4c3nc12` [Example 6, N-(2-(dimethylamino)-2-methylpropyl)-7-oxo-7H-benzo[h]pyrido[2,1-b]quinazoline-12-carboxamide hydrochloride], the “Activity Range (pIC50)” value was “++ ((++) with pIC50 5.8 to 6.3)”.
With `O=C(NCCN1C[C@@H](O)[C@H](O)C1)c1cccn2c(=O)c3ccc4ccccc4c3nc12` [Example 7, N-(2-((3R,4R)-3,4-dihydroxy-pyrrolidin-1-yl)ethyl)-7-oxo-7H-benzo[h]pyrido[2,1-b]quinazoline-12-carboxamide hydrochloride] the “Activity Range (pIC50)” value was “+++ ((+++) with a pIC50 above 6.3)”.
With `O=C(NC1CNC1)c1cccn2c(=O)c3ccc4ccccc4c3nc12` [Example 8, N-(azetidin-3-yl)-7-oxo-7H-benzo[h]pyrido[2,1-b]quinazoline-12-carboxamide dihydrochloride] the “Activity Range (pIC50)” value was “+ ((+) is associated with a pIC50 5.02 to 5.8)”.
For `CN1CC(NC(=O)c2cccn3c(=O)c4ccc5ccccc5c4nc23)C1` [Example 9, N-(1-methylazetidin-3-yl)-7-oxo-7H-benzo[h]pyrido[2,1-b]quinazoline-12-carboxamide hydrochloride], the “Activity Range (pIC50)” value was “++ ((++) with pIC50 5.8 to 6.3)”.
For `C[C@@H](CNC(=O)c1cccn2c(=O)c3ccc4ccccc4c3nc12)N(C)C` [Example 10, (S)-N-(2-(dimethylamino)propyl)-7-oxo-7H-benzo[h]pyrido[2,1-b]quinazoline-12-carboxamide; hydrochloride], the “Activity Range (pIC50)” value was “++ ((++) with pIC50 5.8 to 6.3)”.
For `C[C@H](CNC(=O)c1cccn2c(=O)c3ccc4ccccc4c3nc12)N(C)C` [Example 11, (R)-N-(2-(dimethylamino)propyl)-7-oxo-7H-benzo[h]pyrido[2,1-b]quinazoline-12-carboxamide; hydrochloride], the “Activity Range (pIC50)” value was “+++ ((+++) with a pIC50 above 6.3)”.
With `CCN(CC)CCNC(=O)c1cccn2c(=O)c3ccc4ccccc4c3nc12` [Example 12, N-(2-(diethylamino)ethyl)-7-oxo-7H-benzo[h]pyrido[2,1-b]quinazoline-12-carboxamide; hydrochloride] the “Activity Range (pIC50)” value was “++ ((++) with pIC50 5.8 to 6.3)”.
For `C[C@@H](CN(C)C)NC(=O)c1cccn2c(=O)c3ccc4ccccc4c3nc12` [Example 13, (S)-N-(1-(dimethylamino)propan-2-yl)-7-oxo-7H-benzo[h]pyrido[2,1-b]quinazoline-12-carboxamide; hydrochloride], the “Activity Range (pIC50)” value was “++ ((++) with pIC50 5.8 to 6.3)”.
For `C[C@H](CN(C)C)NC(=O)c1cccn2c(=O)c3ccc4ccccc4c3nc12` [Example 14, (R)-N-(1-(dimethylamino)propan-2-yl)-7-oxo-7H-benzo[h]pyrido[2,1-b]quinazoline-12-carboxamide; hydrochloride], the “Activity Range (pIC50)” value was “+++ ((+++) with a pIC50 above 6.3)”.
In the case of `O=C(NCCN1CCCCC1)c1cccn2c(=O)c3ccc4ccccc4c3nc12` [Example 15, 7-oxo-N-(2-(piperidin-1-yl)ethyl)-7H-benzo[h]pyrido[2,1-b]quinazoline-12-carboxamide; hydrochloride], the “Activity Range (pIC50)” value is reported as “++ ((++) with pIC50 5.8 to 6.3)”.
For `CNCCNC(=O)c1cccn2c(=O)c3ccc4ccccc4c3nc12` [Example 16, N-(2-(methylamino)ethyl)-7-oxo-7H-benzo[h]pyrido[2,1-b]quinazoline-12-carboxamide hydrochloride], the “Activity Range (pIC50)” value was “+++ ((+++) with a pIC50 above 6.3)”.
With `NCCNC(=O)c1cccn2c(=O)c3ccc4ccccc4c3nc12` [Example 17, N-(2-aminoethyl)-7-oxo-7H-benzo[h]pyrido[2,1-b]quinazoline-12-carboxamide hydrochloride] the “Activity Range (pIC50)” value was “+ ((+) is associated with a pIC50 5.02 to 5.8)”.
For `CCN(C)CCNC(=O)c1cccn2c(=O)c3ccc4ccccc4c3nc12` [Example 18, N-(2-(ethyl(methyl)amino)ethyl)-7-oxo-7H-benzo[h]pyrido[2,1-blquinazoline-12-carboxamide hydrochloride], the “Activity Range (pIC50)” value was “+++ ((+++) with a pIC50 above 6.3)”.
For `CC1(C)CCN(CCNC(=O)c2cccn3c(=O)c4ccc5ccccc5c4nc23)C1` [Example 21, N-(2-(3,3-dimethylpyrrolidin-1-yl)ethyl)-7-oxo-7H-benzo[h]pyrido[2,1-b]quinazoline-12-carboxamide hydrochloride], the “Activity Range (pIC50)” value was “++ ((++) with pIC50 5.8 to 6.3)”.
With `O=C1CCN(CCNC(=O)c2cccn3c(=O)c4ccc5ccccc5c4nc23)CC1` [Example 22, 7-oxo-N-(2-(4-oxopiperidin-1-yl)ethyl)-7H-benzo[h]pyrido[2,1-b]quinazoline-12-carboxamide hydrochloride] the “Activity Range (pIC50)” value was “++ ((++) with pIC50 5.8 to 6.3)”.
`CO[C@H]1CCN(CCNC(=O)c2cccn3c(=O)c4ccc5ccccc5c4nc23)C1` [Example 23, (S)-N-(2-(3-methoxypyrrolidin-1-yl)ethyl)-7-oxo-7H-benzo[h]pyrido[2,1-b]quinazoline-12-carboxamide hydrochloride] was tested, and the “Activity Range (pIC50)” value was “+++ ((+++) with a pIC50 above 6.3)”.
